# Assay results reported in ChEMBL document CHEMBL6114962, “Nucleoside antiviral agents with atypical structures and new targets” (Bioorg Med Chem Lett, 2025).
# What was measured:
# [1] = target: RNA-directed RNA polymerase (Hepacivirus hominis, UniProt O39930); test: Inhibition of Hepatitis C virus NS5B polymerase
# Hepatitis C virus [2] = test: Antiviral activity against Hepatitis C virus infected in Vero E6 cells assessed as virus induced cytopathic effect; format: functional, organism-based, Hepacivirus hominis; conditions: Vero C1008
# Human coronavirus OC43 = test: Antiviral activity against Human coronavirus OC43 infected in Vero cells assessed as reduction in viral replication pre-incubated with virus for 1 hr followed by washout and compound treatment and measured after 3 days by qRT-PCR analysis; format: functional, organism-based; conditions: Betacoronavirus 1, Vero
# [3] = Cytotoxicity against African green monkey Vero cells; format: toxicity, cell-based; conditions: chlorocebus sabaeus
# [4] = Cytotoxicity against African green monkey Vero E6 cells assessed as reduction in cell viability by Cell titer-Glo luminescent assay; format: toxicity, cell-based; conditions: chlorocebus sabaeus
# Ebolavirus = test: Antiviral activity against Ebola virus infected in Vero E6 cells assessed as virus-induced cytopathic effect incubated for 3 days by CPE assay; format: functional, organism-based; conditions: Orthoebolavirus, Vero C1008, 72 h
# [5] = Cytotoxicity against African green monkey Vero E6 cells assessed as reduction in cell growth; format: toxicity, cell-based; conditions: chlorocebus sabaeus
# SARS-CoV [6] = test: Antiviral activity against SARS-CoV Urbani infected in Vero E6 cells at 0.01 to 0.025 MOI assessed as inhibition of virus induced cytopathic effect; format: functional, organism-based; conditions: Severe acute respiratory syndrome-related coronavirus, Vero C1008
# [7] = Cytotoxicity against African green monkey Vero E6 cells assessed as reduction in cell viability by neutral red uptake assay; format: toxicity, cell-based, Vero C1008; conditions: chlorocebus sabaeus
# Human alphaherpesvirus 3 [8] = test: Antiviral activity against Varicella zoster virus infected in human HEL cells assessed as inhibition of plaque formation measured for 3 days; format: functional, organism-based; conditions: Human alphaherpesvirus 3, HEL, 72 h
# HMEC-1 = test: Cytotoxicity against human HMEC-1 cells assessed as reduction in cell growth incubated for 24 hrs; format: functional
# Vaccinia virus = test: Antiviral activity against Vaccinia virus; format: functional, organism-based; conditions: Orthopoxvirus vaccinia
# [9] = Cytotoxicity against human HFF cells; format: toxicity, cell-based
# SARS-CoV-2 = test: Antiviral activity against SARS CoV-2 Omicron B1.1.529 infected in Vero E6 cells at 0.02 MOI assessed as reduction in viral RNA growth incubated for 24 hrs by qRT-PCR analysis; format: functional, organism-based; conditions: Severe acute respiratory syndrome coronavirus 2, Omicron B1.1.529, Vero C1008, 24 h
# Influenza A virus [10] = test: Antiviral activity against influenza A virus A/WSN/33 (H1N1) infected in dog MDCK cells assessed as reduction in virus induced cytopathic effect measured after 48 hrs by crystal violet staining based assay; format: functional, organism-based
# Influenza A virus [11] = test: Antiviral activity against Influenza virus H3N2 (A/Hong Kong/8/68) infected in dog MDCK cells assessed as reduction in virus induced cytopathic effect measured after 48 hrs by crystal violet staining based assay; format: functional, organism-based
# [12] = Cytotoxicity against dog MDCK cells assessed as reduction in cell viability incubated for 72 hrs by CCK-8 assay; format: toxicity, cell-based, Canis lupus familiaris
# SARS-CoV [13] = test: Antiviral activity against SARS-CoV Frankfurt-1 infected in Vero E6 cells assessed as reduction in viral replication; format: functional, organism-based; conditions: Severe acute respiratory syndrome-related coronavirus, Frankfurt-1, Vero C1008
# SARS-CoV [14] = test: Antiviral activity against SARS-CoV HKU39849 infected in Vero E6 cells assessed as reduction in viral replication; format: functional, organism-based; conditions: Severe acute respiratory syndrome-related coronavirus, HKU39849, Vero C1008
# [15] = Cytotoxicity against African green monkey Vero E6 cells assessed as reduction in cell viability measured after 72 hrs by WST-1 assay; format: toxicity, cell-based, Vero C1008; conditions: chlorocebus sabaeus
# Human betaherpesvirus 5 = test: Antiviral activity against HCMV; format: functional, organism-based
# HEL = test: Cytotoxicity against human HEL cells assessed as reduction in cell viability incubated for 24 hrs by MTT assay; format: functional
# Human alphaherpesvirus 3 [16] = test: Antiviral activity against Varicella zoster virus infected in human HEL cells assessed as reduction in plaque formation; format: functional, organism-based; conditions: Human alphaherpesvirus 3, HEL
# [17] = target: Histone-lysine N-methyltransferase SETD2 (Homo sapiens, UniProt Q9BYW2); test: Inhibition of human recombinant […] N-terminal His-tagged SETD2 (1347to1711 residues) extracted from Escherichia coli BL21 (DE3) using biotin-tagged Histone H3 and 3H-SAM as substrate incubated for 1 hr by TopCount scintillation proximity assay
# Human alphaherpesvirus 3 [18] = test: Antiviral activity against Varicella zoster virus infected in human HEL cells assessed as reduction in plaque formation incubated for 72 hrs; format: functional, organism-based; conditions: Human alphaherpesvirus 3, HEL
# [19] = Cytotoxicity against human HEL cells; format: toxicity, cell-based
# Influenza A virus [20] = test: Antiviral activity against influenza A virus H1N1 infected in dog MDCK cells assessed as reduction in virus induced cytopathic effect by CPE assay; format: functional, organism-based
# Influenza A virus [21] = test: Anti-influenza activity against influenza A virus H3N2 (A/California/2014) infected in dog MDCK cells incubated for 72 hrs by MTT assay; format: functional, organism-based
# [22] = Cytotoxicity against dog MDCK cells assessed as reduction in cell viability incubated for 48 hrs by CCK-8 assay; format: toxicity, cell-based, Canis lupus familiaris
# Hepatitis C virus [23] = test: Antiviral activity against Hepatitis C virus infected in human Huh-7 cells assessed as reduction in viral infection incubated for 72 hrs by qRT-PCR analysis; format: functional, organism-based, Hepacivirus hominis; conditions: Huh-7, 72 h
# [24] = target: Replicase polyprotein 1ab (Severe acute respiratory syndrome coronavirus 2, UniProt P0DTD1); test: Inhibition of C-terminal SARS-CoV-2 nsp14 N7-methyltransferase activity incubated for 30 mins in presence of SAM by Liquid scintillation analysis
# [25] = Cytotoxicity against human HEL 299 cells; format: toxicity, cell-based
# Human alphaherpesvirus 1 = test: Antiviral activity against HSV-1; format: functional, organism-based
# Human alphaherpesvirus 2 = test: Antiviral activity against HSV-2; format: functional, organism-based
# Histone-lysine N-methyltransferase SETD2, sequence (Q9BYW2 whole entry, the tested form may be a part): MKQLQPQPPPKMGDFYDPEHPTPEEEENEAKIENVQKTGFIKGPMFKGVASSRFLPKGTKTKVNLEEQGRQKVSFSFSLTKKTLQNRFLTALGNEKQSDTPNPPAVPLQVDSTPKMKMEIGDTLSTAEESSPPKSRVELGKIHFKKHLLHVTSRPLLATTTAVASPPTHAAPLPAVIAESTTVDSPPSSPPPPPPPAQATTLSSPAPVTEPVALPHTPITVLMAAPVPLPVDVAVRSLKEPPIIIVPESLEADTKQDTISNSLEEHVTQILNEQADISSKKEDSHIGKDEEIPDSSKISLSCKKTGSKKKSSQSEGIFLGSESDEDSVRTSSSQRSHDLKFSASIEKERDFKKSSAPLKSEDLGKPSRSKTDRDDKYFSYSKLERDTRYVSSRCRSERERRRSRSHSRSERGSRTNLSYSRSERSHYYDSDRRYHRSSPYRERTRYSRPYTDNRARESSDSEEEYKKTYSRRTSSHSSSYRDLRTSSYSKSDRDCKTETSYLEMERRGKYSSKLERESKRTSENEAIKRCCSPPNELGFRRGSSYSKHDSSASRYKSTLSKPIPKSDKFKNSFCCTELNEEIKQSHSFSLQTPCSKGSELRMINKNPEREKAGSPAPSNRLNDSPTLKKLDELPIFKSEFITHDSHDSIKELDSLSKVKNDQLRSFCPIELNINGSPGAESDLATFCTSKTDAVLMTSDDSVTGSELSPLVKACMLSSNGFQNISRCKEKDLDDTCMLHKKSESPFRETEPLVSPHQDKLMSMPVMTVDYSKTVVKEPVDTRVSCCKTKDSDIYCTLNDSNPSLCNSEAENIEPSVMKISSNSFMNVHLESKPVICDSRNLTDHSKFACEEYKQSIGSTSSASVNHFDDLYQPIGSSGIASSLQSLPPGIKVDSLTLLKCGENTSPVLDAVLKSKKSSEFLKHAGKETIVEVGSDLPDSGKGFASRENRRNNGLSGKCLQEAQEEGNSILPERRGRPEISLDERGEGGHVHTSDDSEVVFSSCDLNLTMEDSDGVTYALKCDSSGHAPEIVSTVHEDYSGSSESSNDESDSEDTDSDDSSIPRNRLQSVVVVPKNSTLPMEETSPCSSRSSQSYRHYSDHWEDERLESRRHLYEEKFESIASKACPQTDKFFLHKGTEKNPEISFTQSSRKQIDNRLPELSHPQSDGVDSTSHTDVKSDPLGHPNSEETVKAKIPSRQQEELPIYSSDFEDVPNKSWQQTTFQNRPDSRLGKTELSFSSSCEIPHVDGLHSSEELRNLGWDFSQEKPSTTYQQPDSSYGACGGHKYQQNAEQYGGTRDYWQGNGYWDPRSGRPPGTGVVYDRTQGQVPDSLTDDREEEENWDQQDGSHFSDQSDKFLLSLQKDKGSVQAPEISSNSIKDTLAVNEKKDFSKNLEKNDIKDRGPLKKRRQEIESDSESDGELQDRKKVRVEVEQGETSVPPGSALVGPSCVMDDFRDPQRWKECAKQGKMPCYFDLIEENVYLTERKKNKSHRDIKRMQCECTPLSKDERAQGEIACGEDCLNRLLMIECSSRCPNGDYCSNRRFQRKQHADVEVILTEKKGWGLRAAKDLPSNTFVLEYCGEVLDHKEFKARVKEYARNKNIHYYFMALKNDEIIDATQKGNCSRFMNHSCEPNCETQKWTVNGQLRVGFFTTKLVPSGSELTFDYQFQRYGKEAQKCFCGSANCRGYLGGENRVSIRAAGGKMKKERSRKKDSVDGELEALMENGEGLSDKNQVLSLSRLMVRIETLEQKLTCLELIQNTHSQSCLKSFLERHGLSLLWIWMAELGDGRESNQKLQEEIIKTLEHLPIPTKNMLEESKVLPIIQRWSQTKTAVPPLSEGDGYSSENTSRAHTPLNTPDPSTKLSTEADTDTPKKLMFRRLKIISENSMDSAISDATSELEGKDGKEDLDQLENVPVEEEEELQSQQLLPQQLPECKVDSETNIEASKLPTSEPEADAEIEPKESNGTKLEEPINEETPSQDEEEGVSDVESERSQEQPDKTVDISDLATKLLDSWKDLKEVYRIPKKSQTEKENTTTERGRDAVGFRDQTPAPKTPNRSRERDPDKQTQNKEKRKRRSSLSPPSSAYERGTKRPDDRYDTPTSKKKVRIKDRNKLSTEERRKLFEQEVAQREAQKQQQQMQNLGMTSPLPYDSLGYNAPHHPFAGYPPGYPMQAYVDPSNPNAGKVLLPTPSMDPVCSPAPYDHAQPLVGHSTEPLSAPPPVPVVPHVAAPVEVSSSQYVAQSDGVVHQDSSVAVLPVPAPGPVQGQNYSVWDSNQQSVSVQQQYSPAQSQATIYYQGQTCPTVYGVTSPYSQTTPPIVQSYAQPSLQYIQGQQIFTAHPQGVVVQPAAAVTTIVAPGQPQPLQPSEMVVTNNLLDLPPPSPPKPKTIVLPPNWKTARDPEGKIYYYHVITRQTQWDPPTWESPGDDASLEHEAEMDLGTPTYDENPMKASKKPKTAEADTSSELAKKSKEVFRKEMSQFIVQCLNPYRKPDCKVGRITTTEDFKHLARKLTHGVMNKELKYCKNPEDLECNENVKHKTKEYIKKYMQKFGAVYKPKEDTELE
# RNA-directed RNA polymerase, sequence (O39930 whole entry): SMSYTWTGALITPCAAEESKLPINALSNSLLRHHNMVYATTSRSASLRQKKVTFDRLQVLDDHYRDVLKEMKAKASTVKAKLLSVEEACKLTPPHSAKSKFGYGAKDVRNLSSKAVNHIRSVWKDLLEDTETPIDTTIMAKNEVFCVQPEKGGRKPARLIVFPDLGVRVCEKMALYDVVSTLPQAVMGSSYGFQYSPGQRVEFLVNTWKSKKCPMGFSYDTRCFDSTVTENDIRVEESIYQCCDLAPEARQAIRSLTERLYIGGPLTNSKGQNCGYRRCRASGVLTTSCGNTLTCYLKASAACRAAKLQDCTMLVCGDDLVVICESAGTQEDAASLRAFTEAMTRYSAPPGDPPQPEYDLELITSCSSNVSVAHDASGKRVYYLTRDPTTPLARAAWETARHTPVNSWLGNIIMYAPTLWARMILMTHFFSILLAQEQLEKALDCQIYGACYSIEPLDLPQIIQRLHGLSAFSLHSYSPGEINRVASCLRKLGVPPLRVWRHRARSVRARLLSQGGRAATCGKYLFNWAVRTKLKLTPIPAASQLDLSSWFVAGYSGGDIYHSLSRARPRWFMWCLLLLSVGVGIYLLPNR
compound,measurement,setting,value
O=c1nc(NO)ccn1[C@@H]1O[C@H](CO)[C@@H](O)[C@H]1O [N-HYDROXYCYTIDINE],IC50,[1],50 µM
same,EC50,Hepatitis C virus [2],5 µM
Cc1nc(N)c2c(C(N)=O)cc([C@@H]3O[C@H](CO)[C@@H](O)[C@H]3O)n2n1,EC50,Human coronavirus OC43,0.65 µM
same,CC50,[3],45 µM
O=c1[nH]cnc2c([C@@H]3N[C@H](CO)[C@@H](O)[C@H]3O)c[nH]c12 [FORODESINE],CC50,[4],> 100 µM
CC(C)=CCNc1ncnc2c1ncn2[C@@H]1O[C@H](CO)[C@@H](O)[C@H]1O [RIBOPRINE],CC50,[4],> 100 µM
Nc1nccc2c1ncn2[C@@H]1C=C(CO)[C@@H](O)[C@H]1O,EC50,Ebolavirus,30 µM
same,CC50,[5],> 100 µM
COc1c(C)c2c(c(O)c1C/C=C(\C)CCC(=O)O)C(=O)OC2 [MYCOPHENOLIC ACID],EC50,SARS-CoV [6],> 30 µM
same,CC50,[7],> 30 µM
C#CCn1c(=O)n(C(=O)c2ccccc2F)c(=O)c2ccccc21,EC50,Human alphaherpesvirus 3 [8],2.8 µM
same,CC50,HMEC-1,> 100 µM
CCCCCOCCCCCCCCCc1cc2cn([C@@H]3CC[C@H](CO)O3)c(=O)nc2o1,EC50,Vaccinia virus,0.19 µM
same,CC50,[9],> 100 µM
OC[C@H]1O[C@@H](n2cnc3c(N[C@@H]4CCOC4)ncnc32)[C@H](O)[C@@H]1O [TECADENOSON],CC50,[4],> 100 µM
same,EC50,SARS-CoV-2,1.13 µM
Cc1ncnc2c1c(/C=C/c1ccccn1)cn2[C@@H]1O[C@H](CO)[C@@H](O)[C@@]1(C)F,EC50,Influenza A virus [10],5.88 µM
same,EC50,Influenza A virus [11],6.95 µM
same,CC50 at 72 h,[12],> 100 µM
NC(=O)c1ncn([C@@H]2O[C@H](CO)[C@@H](O)[C@H]2O)c1O [MIZORIBINE],EC50,SARS-CoV [13],3.5 µg/mL
same,EC50,SARS-CoV [14],16 µg/mL
same,CC50 at 72 h,[15],> 200 µg/mL
OC[C@@H]1O[C@H](n2cnc3cc(Br)c(Br)cc32)[C@@H](O)[C@H]1O,EC50,Human betaherpesvirus 5,1.2 µM
NC(=O)c1ncn([C@@H]2O[C@H](CO)[C@@H](O)[C@H]2O)n1 [RIBAVIRIN],EC50,SARS-CoV [13],20 µg/mL
same,EC50,SARS-CoV [14],80 µg/mL
same,CC50 at 72 h,[15],> 200 µg/mL
O=c1c2ccccc2n(Cc2cn(CCCOCc3ccccc3)nn2)c(=O)n1Cc1ccccc1,EC50,Human alphaherpesvirus 3 [8],> 20 µM
Nc1ncnc2c1ncn2[C@@H]1O[C@H](CO)[C@@H](O)[C@@H]1O [VIDARABINE],CC50,[4],> 100 µM
same,EC50,SARS-CoV-2,0.251 µM
COc1ccc(C(OC[C@H]2O[C@@H](n3cc4c(nc3=O)Nc3ccccc3O4)[C@H](O)[C@@H]2O)(c2ccccc2)c2ccc(OC)cc2)cc1,CC50,HEL,9.7 µM
same,EC50,Human alphaherpesvirus 3 [16],2.7 µM
Nc1ncnc2c1ncn2[C@@H]1O[C@H](C[C@H](CC[C@H](N)C(=O)O)NCc2ccccc2)[C@@H](O)[C@H]1O,IC50,[17],0.48 µM
Nc1nccc2c1ncn2[C@@H]1C[C@H](CO)[C@@H](O)[C@H]1O [3-DEAZAARISTEROMYCIN A],EC50,Ebolavirus,2 µM
same,CC50,[5],> 100 µM
C#CCn1c(=O)n(C(=O)c2ccccc2)c(=O)c2ccccc21,EC50,Human alphaherpesvirus 3 [8],5.4 µM
same,CC50,HMEC-1,11.2 µM
O=c1nc2oc(CCCCCCCCCF)cc2cn1[C@H]1C[C@H](O)[C@@H](CO)O1,EC50,Human alphaherpesvirus 3 [18],0.014 µM
same,CC50,[19],200 µM
NC(=O)c1nc(F)cnc1O [FAVIPIRAVIR],EC50,Influenza A virus [20],0.03 µg/mL
same,EC50,Influenza A virus [21],0.07 µg/mL
same,CC50 at 48 h,[22],> 100 µM
CC(C)Nc1nc2cc(Cl)c(Cl)cc2n1[C@H]1O[C@@H](CO)[C@H](O)[C@@H]1O [MARIBAVIR],CC50,[4],> 100 µM
NC(=O)c1cc([C@@H]2O[C@H](CO)[C@@H](O)[C@H]2O)n2nc(CF)nc(N)c12,EC50,Human coronavirus OC43,1.3 µM
same,CC50,[3],45 µM
C#Cc1c(C(N)=O)ncn1[C@@H]1O[C@H](CO)[C@@H](O)[C@H]1O,EC50,SARS-CoV [6],> 40 µM
same,CC50,[7],> 40 µM
CC(C)OC(=O)[C@H](C)N[P@](=O)(OC[C@H]1O[C@@H](n2ccc(=O)[nH]c2=O)[C@](C)(F)[C@@H]1O)Oc1ccccc1 [SOFOSBUVIR],EC50,Hepatitis C virus [23],0.092 µM
COc1nc(N)nc2c1ncn2[C@@H]1O[C@H](CO)[C@@H](O)[C@@H]1O [NELARABINE],CC50,[4],> 100 µM
Nc1ncnc2c1c(C#Cc1cnc3ccccc3c1)cn2[C@@H]1O[C@H](CSCC[C@H](N)C(=O)O)[C@@H](O)[C@H]1O,IC50,[24],0.003 µM
O=c1c2ccccc2n(Cc2cn(CCCOCc3ccccc3)nn2)c(=O)n1Cc1ccc(F)cc1,EC50,Human alphaherpesvirus 3 [8],12.3 µM
Nc1nc2c(ncn2C[Se]CCO)c(=O)[nH]1,CC50,[25],> 100 µM
same,EC50,Human alphaherpesvirus 1,1.47 µM
same,EC50,Human alphaherpesvirus 2,6.34 µM
COc1ccc(C(OC[C@H]2O[C@@H](n3cc4c(nc3=O)Nc3c(OCCN)cccc3O4)C[C@@H]2O)(c2ccccc2)c2ccc(OC)cc2)cc1,CC50,HEL,14.4 µM
same,EC50,Human alphaherpesvirus 3 [16],1.7 µM
O[C@@H]1[C@H](O)[C@H](O)CO[C@H]1Cn1c(Br)nc2cc(Cl)c(Cl)cc21,EC50,Human betaherpesvirus 5,1.4 µM
Cc1ncnc2c1c(/C=C/c1cccs1)cn2[C@@H]1O[C@H](CO)[C@@H](O)[C@@]1(C)F,EC50,Influenza A virus [10],3.95 µM
same,EC50,Influenza A virus [11],3.61 µM
same,CC50 at 72 h,[12],> 100 µM
O=c1nc2c(cn1[C@H]1C[C@H](O)[C@@H](CO)O1)Oc1ccccc1N2,CC50,HEL,> 100 µM
O=c1nc2oc(CCCCCCCCCCl)cc2cn1[C@H]1C[C@H](O)[C@@H](CO)O1,EC50,Human alphaherpesvirus 3 [18],0.012 µM
same,CC50,[19],200 µM
COc1ccc(C(OC[C@H]2O[C@@H](n3cc4c(nc3=O)Nc3ccccc3O4)C[C@@H]2O)(c2ccccc2)c2ccc(OC)cc2)cc1,CC50,HEL,12.2 µM
same,EC50,Human alphaherpesvirus 3 [16],1.5 µM
Nc1ccn(C[C@@H](CO)OCP(=O)(O)O)c(=O)n1 [CIDOFOVIR ANHYDROUS],EC50,Vaccinia virus,27.3 µM
same,CC50,[9],> 100 µM
CCC(CC)COC(=O)[C@H](C)N[P@](=O)(OC[C@H]1O[C@@](C#N)(c2ccc3c(N)ncnn23)[C@H](O)[C@@H]1O)Oc1ccccc1 [REMDESIVIR],CC50,[4],> 100 µM
same,EC50,SARS-CoV-2,0.981 µM
O=c1nc2oc(CCCCCCCCCI)cc2cn1[C@H]1C[C@H](O)[C@@H](CO)O1,EC50,Human alphaherpesvirus 3 [18],0.034 µM
same,CC50,[19],> 200 µM
O=c1nc2oc(CCCCCCCCCBr)cc2cn1[C@H]1C[C@H](O)[C@@H](CO)O1,EC50,Human alphaherpesvirus 3 [18],0.031 µM
same,CC50,[19],> 50 µM
Nc1nc2c(ncn2C[Se]C(CO)CO)c(=O)[nH]1,CC50,[25],> 100 µM
same,EC50,Human betaherpesvirus 5,53.1 µM
CC(C)C(=O)OC[C@H]1O[C@@H](n2ccc(NO)nc2=O)[C@H](O)[C@@H]1O [MOLNUPIRAVIR],CC50,[4],> 100 µM
same,EC50,SARS-CoV-2,1.08 µM
Nc1ncnc2c1ncn2[C@@H]1O[C@H](C[C@@H](N)CC[C@H](N)C(=O)O)[C@@H](O)[C@H]1O [SINEFUNGIN],IC50,[17],28.4 µM
